Experimental data as given in US9055743B2, “Alpha, beta-unsaturated imines” (BAYER INTELLECTUAL PROPERTY GMBH, priority 2010, dated 2015).

Tests used:
[1] = tested on: larvae of the mustard beetle (Phaedon cochleariae); experiment: Phaedon test (PHAECO spray treatment); format: in vivo; conditions: 500 g/ha, spray, after 7 days
In short: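 Chinese cabbage leaf discs sprayed with compound formulated in acetone/dimethylformamide with alkylaryl polyglycol ether emulsifier, diluted in emulsifier-containing water to the desired concentration. After drying, discs were populated with mustard beetle larvae.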

[2] = tested on: green peach aphid (Myzus persicae); experiment: Myzus test (MYZUPE spray treatment); format: in vivo; conditions: 500 g/ha, spray, after 6 days
In short: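 Chinese cabbage leaf discs infested with all aphid stages were sprayed with compound in acetone/DMF with emulsifier, diluted in emulsifier-containing water. Mortality in % assessed after 6 days (100% = all aphids killed).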

[3] = tested on: caterpillars of the army worm (Spodoptera frugiperda); experiment: Spodoptera frugiperda test (SPODFR spray treatment); format: in vivo; conditions: 500 g/ha, spray, after 7 days
In short: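 Maize leaf discs sprayed with compound formulated in acetone/dimethylformamide plus alkylaryl polyglycol ether emulsifier and diluted in water, then infested with Spodoptera frugiperda caterpillars once dry. Mortality scored after 7 days as % activity, where 100% means all caterpillars killed.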

[4] = tested on: cat fleas (Ctenocephalides felis, fully sensitive laboratory strain); experiment: Contact test against fleas in-vitro (CTECFE contact); format: in vivo; conditions: 500 g/ha, after 48 h
In short: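 Test tubes coated from acetone solutions by rotation, top concentration 500 g/ha (500 μg/dm^2) on tube surface, serial 1:5 dilutions. 10-20 CO2-anesthetized adult fleas held at room temperature for 24 and 48 h. Activity scored versus acetone control: knock-down or death of all fleas = 100%.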

[5] = tested on: greenhouse red spider mite (Tetranychus urticae); experiment: Tetranychus test; OP-resistant (TETRUR spray treatment); format: in vivo; conditions: 500 g/ha, spray, after 6 days
In short: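 Bean leaf discs infested with all stages of OP-resistant Tetranychus urticae were sprayed with compound in acetone/DMF with alkylaryl polyglycol ether emulsifier, diluted in emulsifier-water. Mortality was scored after 6 days: 100% means all mites killed, 0% none.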

[6] = tested on: Aedes aegypti; experiment: Aedes test (AEDSAE surface treatment); format: in vivo; conditions: 100 mg/m^2, two hours after contact, exposition 30 minutes
In short: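 Compound dissolved in acetone (2 mg/ml) and dried onto a glazed tile; adult mosquitoes exposed for 30 minutes. Knock-down % scored at 2 hours and mortality % at 24 hours after contact (100% = all killed).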

[7] = tested on: Culex quinquefasciatus; experiment: whole plant or invertebrate; format: in vivo; conditions: 100 mg/m^2, two hours after contact, exposition 30 minutes
Experimental: Culex Test (CULXFA Surface Treatment) Solvent: Acetone
To produce a suitable preparation of active compound, the active compound is dissolved in acetone (2 mg/ml). The active compound preparation is pipetted onto a glazed tile and, after drying, adult mosquitoes of the species Culex quinquefasciatus are placed onto the treated tile. The exposition time is 30 minutes.
(§1) Two hours after contact to the treated surface, the knock-down proportion of the test animals in % is determined.
(§2) 24 hours after contact to the treated surface, the mortality in % is determined. Here, 100% means that all mosquitoes have been killed; 0% means that none of the mosquitoes has been killed.

[8] = tested on: Anopheles gambiae (homocygus kdr); experiment: Anopheles test (ANPHGB surface treatment); format: in vivo; conditions: 100 mg/m^2, two hours after contact, exposition 30 minutes
In short: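 Compound dissolved in acetone at 2 mg/ml, pipetted onto glazed tile and dried; adult kdr-homozygous mosquitoes exposed on the tile for 30 min. Knock-down (%) read 2 h and mortality (%) 24 h after contact.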

[9] = logP determination by HPLC on reversed-phase columns (C18), LC-MS neutral; format: physicochemical; conditions: pH 7.8, HPLC on C18, calibration with alkan-2-ones
[10] = tested on: Anopheles funestus strain FUMOZ-R; format: in vivo; conditions: 100 mg/m^2, two hours after contact, exposition 30 minutes
Experimental: Anopheles Test (ANPHFU Surface Treatment) Solvent: Acetone
To produce a suitable preparation of active compound, the active compound is dissolved in acetone (2 mg/ml). The active compound preparation is pipetted onto a glazed tile and, after drying, adult mosquitoes of the species Anopheles funestus strain FUMOZ-R (Hunt et al., Med Vet Entomol. 2005 September; 19(3):271-5) are placed onto the treated tile. The exposition time is 30 minutes.
as §1, §2

[11] = tested on: Ctenocephalides felis; experiment: Ctenocephalides felis oral test (CTECFE); format: in vivo; conditions: 100 ppm in citrated cattle blood, after two days
In short: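 About 20 unfed adult C. felis fed through a parafilm membrane on citrated cattle blood containing compound (DMSO stock diluted to the desired concentration). Kill (%) determined after two days; 100% = all fleas dead, 0% = none dead.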

[12] = tested on: Lucilia cuprina larvae; experiment: Lucilia cuprina test (LUCICU); format: in vivo; conditions: 100 ppm, after 2 days
Experimental: Lucilia cuprina Test (LUCICU)
(§3) Solvent: Dimethyl Sulphoxide
To produce a suitable preparation of active compound, 10 mg of active compound are mixed with 0.5 ml of dimethyl sulphoxide and the concentrate is diluted with water to the desired concentration. Vessels containing horsemeat treated with the active compound preparation of the desired concentration are populated with about 20 Lucilia cuprina larvae.
After 2 days, the kill in % is determined. 100% means that all larvae have been killed; 0% means that none of the larvae have been killed.

[13] = tested on: Boophilus microplus strain Parkhurst, SP-resistant; experiment: Boophilus microplus test (DIP); format: in vivo; conditions: 100 ppm, after 7 days
Experimental: Boophilus microplus Test (DIP) Test Animals: Adult Fat Females of the Boophilus microplus Strain Parkhurst—SP-Resistant) Solvent: Dimethyl Sulphoxide
10 mg of active compound are dissolved in 0.5 ml of dimethyl sulphoxide. To produce a suitable formulation, the active compound solution is diluted with water to the particular desired concentration.
This active compound preparation is pipetted into tubes. 8-10 ticks are transferred into a further tube provided with holes. The tube is dipped into the active compound preparation, with all the ticks being wetted completely. After the liquid has run off, the ticks are transferred to filter discs in plastic dishes and kept in a climatized room. After 7 days, the activity is checked for deposition of fertile eggs. Eggs whose fertility is not visible from the outside are kept in glass tubes in a climatized cupboard until the larvae have hatched. An activity of 100% means that no tick has laid fertile eggs.

[14] = tested on: Musca domestica; experiment: Musca domestica test (MUSCDO); format: in vivo; conditions: 100 ppm, after 2 days
Experimental: Musca domestica Test (MUSCDO)
as §3
To produce a suitable preparation of active compound, 10 mg of active compound are mixed with 0.5 ml of dimethyl sulphoxide and the concentrate is diluted with water to the desired concentration. Vessels containing a sponge treated with the active compound preparation of the desired concentration are populated with adult Musca domestica.
After 2 days, the kill in % is determined 100% means that all flies have been killed; 0% means that none of the flies have been killed.

[15] = tested on: Boophilus microplus; experiment: Boophilus microplus test (BOOPMI injection); format: in vivo; conditions: 20 μg/animal, injection into the abdomen, after 7 days
In short: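 Ticks injected in the abdomen with compound in DMSO, then held in a climatized room. Effect scored after 7 days as % reduction in fertile egg laying, 100% meaning no fertile eggs.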

Structure (SMILES) | activity (beetle larvae killed) [1] [%] | activity (aphids killed) [2] [%] | activity (caterpillars killed) [3] [%] | activity against cat fleas [4] [%] | activity (spider mites killed) [5] [%] | knock-down activity [6] [%] | knock-down activity [7] [%] | knock-down activity [8] [%] | logP [9] | knock-down activity [10] [%] | activity (kill in %) [11] [%] | activity (kill in %) [12] [%] | activity (100% = no tick has laid fertile eggs) [13] [%] | activity (kill in %) [14] [%] | activity (100% = none of the ticks has laid any fertile eggs) [15] [%]
Cc1ccc(N=C2C(=CSc3ccc(F)cc3)CCc3cc(C)ccc32)cc1 [Example 1-46] | 100 | 100 | 100 | 100 | 100 | 100 | 100 | 100 |  |  |  |  |  |  | 
CC(=O)Nc1ccc2c(c1)CCC(=CSc1ccc(F)cc1)C2=Nc1ccc(C)cc1 [Example 1-48] |  |  |  |  |  |  |  |  | LC-MS (neutral)*: logP = 4.64, (M + H)^+ = 431. |  |  |  |  |  | 
Cc1ccc(N=C2C(=CSc3ccc(F)cc3)C3CCC2C3)cc1 (centres unmarked) [Example 1-40] | 100 |  |  |  | 100 | 100 |  | 100 |  | 100 |  |  |  |  | 
Cc1ccc(N=C2C(=CSc3ccccc3)C(C)c3ccccc32)cc1 (mixture of isomers) [Example 1-5] | 100 | 100 | 100 | 100 | 100 |  |  | 100 |  |  | 100 | 100 | 100 | 100 | 100
Cc1ccc(N=C2C(=CSc3ccccc3)C3CCC2C3)cc1 (centres unmarked) [Example 1-100] | 100 | 100 | 100 |  |  | 100 |  | 100 |  | 100 |  |  |  |  | 
Cc1ccc(N=C2C(=CSc3ccc(F)cc3)C(C)c3cccc(F)c32)cc1 (mixture of isomers) [Example 1-27] | 100 | 100 | 100 | 100 | 100 | 100 |  | 100 |  |  | 100 | 100 | 100 | 100 | 100
CC1C(=CSc2ccccc2)C(=Nc2ccc(Cl)cc2)c2ccccc21 (centres unmarked) [Example 1-11] |  |  |  |  |  |  |  |  | LC-MS (neutral)*: logP = 6.38, (M + H)^+ = 376 |  |  |  |  |  | 
Cc1ccc(N=C2CCCCCC2=CSc2ccccc2)cc1 [Example 1-38] |  |  |  | 100 |  | 100 |  | 100 | LC-MS (neutral)*: logP = 6.20, (M + H)^+ = 322 |  |  |  |  |  | 
Cc1ccc(N=C2C(=CSc3ccc(F)cc3)CCCC2=Cc2ccccc2)cc1 [Example 1-56] |  |  |  |  |  |  |  |  | LC-MS (neutral)*: logP = 7.01, (M + H)^+ = 414. |  |  |  |  |  | 
Cc1ccc(N=C2C(=CSc3ccc(F)cc3)COc3cc(F)ccc32)cc1 [Example 1-58] | 100 | 100 | 100 | 100 | 100 | 100 | 100 | 100 |  |  |  |  |  |  | 
Cc1ccc(N=C2C(=CSc3ccc(F)cc3)COc3ccccc32)cc1 [Example 1-36] | 100 | 100 | 100 | 100 | 100 | 100 | 100 | 100 |  |  | 90 | 100 |  |  | 100
